Measured values reported in ChEMBL document CHEMBL1141284, “Transdermal penetration behaviour of drugs: CART-clustering, QSPR and selection of model compounds” (Bioorg Med Chem, 2007).

Test system: Zone of skin
Test: Permeability coefficient in human skin

## c1ccc2cnccc2c1 [ISOQUINOLINE]
  log Kp: -5.34

## O=[N+]([O-])O[C@H]1CO[C@H]2[C@@H]1OC[C@H]2O[N+](=O)[O-] [ISOSORBIDE DINITRATE]
  log Kp: -5.43

## CC(C(=O)O)c1cccc(C(=O)c2ccccc2)c1 (centres undefined) [KETOPROFEN]
  log Kp: -4.4

## O=C(c1ccccc1)c1ccc2n1CCC2C(=O)O (centres undefined) [KETOROLAC]
  log Kp: -5.38

## N[C@@H](Cc1ccc(O)c(O)c1)C(=O)O [LEVODOPA]
  log Kp: -7.75

## NCCCC[C@H](N)C(=O)O [LYSINE]
  log Kp: -6.86

## OC[C@@H](O)[C@@H](O)[C@H](O)[C@H](O)CO [MANNITOL]
  log Kp: -7.79

## CCOC(=O)C1(c2ccccc2)CCN(C)CC1 [MEPERIDINE]
  log Kp: -6.46

## COCCc1ccc(OCC(O)CNC(C)C)cc1 (centres undefined) [METOPROLOL]
  log Kp: -6.76

## Nc1cc(N2CCCCC2)nc(N)[n+]1[O-] [MINOXIDIL]
  log Kp: -7.19

## C1COCCN1 [MORPHOLINE]
  log Kp: -7.42

## O=NN(CCO)CCO [N-NITROSODOETHANOLAMINE]
  log Kp: -8.81

## O=C(O)c1cccnc1 [NIACIN]
  log Kp: -8.02

## O=C(NCCO[N+](=O)[O-])c1cccnc1 [NICORANDIL]
  log Kp: -7.22

## CN1CCC[C@H]1c1cccnc1 [NICOTINE]
  log Kp: -5.35

## O=[N+]([O-])OCC(CO[N+](=O)[O-])O[N+](=O)[O-] [NITROGLYCERIN]
  log Kp: -5.53

## C=CCOc1ccccc1OCC(O)CNC(C)C (centres undefined) [OXPRENOLOL]
  log Kp: -6.37

## O=[N+]([O-])c1ccc(O)cc1 [P-NITROPHENOL]
  log Kp: -5.81

## CCC1(c2ccccc2)C(=O)NC(=O)NC1=O [PHENOBARBITAL]
  log Kp: -6.6

## CN1C(C(=O)Nc2ccccn2)=C(O)c2ccccc2S1(=O)=O [PIROXICAM]
  log Kp: -6.11

## CC(=O)[C@H]1CC[C@H]2[C@@H]3CC=C4C[C@@H](O)CC[C@]4(C)[C@H]3CC[C@]12C [PREGNENOLONE]
  log Kp: -6.11

## CC(=O)[C@H]1CC[C@H]2[C@@H]3CCC4=CC(=O)CC[C@]4(C)[C@H]3CC[C@]12C [PROGESTERONE]
  log Kp: -6

## CC(C)NCC(O)COc1cccc2ccccc12 (centres undefined) [PROPRANOLOL]
  log Kp: -6.55

## NC(=O)c1ccccc1O [SALICYLAMIDE]
  log Kp: -5.31

## O=C(O)c1ccccc1O [SALICYLIC ACID]
  log Kp: -5.23

## C=Cc1ccccc1 [STYRENE]
  log Kp: -3.75

## Cc1ccc(C(C)C)c(O)c1 [THYMOL]
  log Kp: -4.83

## CC1(C)O[C@@H]2C[C@H]3[C@@H]4CCC5=CC(=O)C=C[C@]5(C)[C@@]4(F)[C@@H](O)C[C@]3(C)[C@]2(C(=O)CO)O1 [TRIAMCINOLONE ACETONIDE]
  log Kp: -6.99

## C[C@]12C=CC(=O)C=C1CC[C@H]1[C@@H]3C[C@@H](O)[C@](O)(C(=O)CO)[C@@]3(C)C[C@H](O)[C@@]12F [TRIAMCINOLONE]
  log Kp: -8.95
